The test system of data set [1] is U87-MG cells. Briefly: CCK-8 IC50 determination in U87-MG cells with or without GLUT3 KD. The format is cell-based, human. The conditions noted are these: GLUT3 KD vs control, CCK-8, 24 h drug treatment. The protocol:
(§1) The GBM cell line was seeded into a 96-well plate at a density of 5 × 10^3 cells per well and incubated at 37 °C in a humidified atmosphere containing 5% CO2 overnight. […] Following 24 h of drug treatment, 10 µL of CCK-8 reagent was added to each well, and the cells were incubated for an additional 1 h at 37 °C. The absorbance was then measured at 450 nm using a microplate reader.
(§2) In this study, the experimental groups were designated as Group A (cells treated with temozolomide (TMZ) or capecitabine (CAPE)), the control group as Group B (cells treated with DMSO), and the blank control group as Group C ([…]). The cell viability rate was calculated using the formula: (A-C)/(B-C) × 100%, where A, B, and C represent the absorbance values of Group A, Group B, and Group C, respectively.

Data set [2] relates to U251-MG cells. Briefly: Colony formation assay in U251-MG cells overexpressing GLUT3 Q159A, W386A or WT. The conditions noted are these: TMZ 200 μM or CAPE 400 μM every two days. The format is cell-based, human. On the procedure: GBM cells were harvested using 0.25% trypsin when cell viability was confirmed to be optimal, and the cell concentration was determined using a hemocytometer. A total of 1 × 10³ cells were seeded into each well of a 6-well plate and incubated at 37 °C overnight. The following day, cell morphology was examined under an inverted microscope. The culture medium was replaced every 2 days, and cell growth was monitored regularly. When cell colonies exceeded 50 cells, they were recorded. The cells were then washed with pre-warmed PBS. Subsequently, the cells were fixed with 4% paraformaldehyde (1 mL per well) for 20 min at room temperature. After fixation, the cells were washed three times with PBS. A total of 1 mL of 0.1% crystal violet staining solution was added to each well for 20 min. The wells were then washed three times with distilled water, covered with a plate lid, and left to dry overnight. The number of colonies in each well was quantified using ImageJ software.
The medium was replaced every 2 days. When colonies visible to the naked eye had formed, the cells were fixed with 4% paraformaldehyde and stained with 0.1% crystal violet as described above. The colonies were then quantified using ImageJ software for statistical analysis.

Data set [3] concerns U251-MG cell-derived xenograft. Briefly: TMZ and CAPE levels in nude mouse xenograft tumors by LC-MS/MS. The class given is in vivo, nude mice (BALB/c-nu). The conditions noted are these: nude mice, TMZ 40 mg/kg or CAPE 20 mg/kg every 3 days; for drug level in GLUT3-overexpressing tumors relative to controls: fasting groups (24 h fast before each dose); for drug concentration in GLUT3 overexpressing tumors relative to controls: regular diet. The protocol: TMZ and CAPE levels in tumors from nude mice were measured using LC-MS/MS. Tumor tissues were excised from the mice and homogenized. The homogenized samples were then centrifuged at maximum speed (~14,000 × g) at 4 °C for 10 min. The supernatant was collected and transferred to a new centrifuge tube.
For LC-MS/MS analysis, the supernatants were diluted to an appropriate concentration. A total of 100 µL of each sample was mixed with 100 µL of acetonitrile (or standard reagent) and 300 µL of internal standard solution (^2H3-TMZ 100 ng/mL and ^2H11-CAPE 20 ng/mL dissolved in acetonitrile). […] To ensure the stability and repeatability of the instrument analysis, QC samples were prepared and analyzed alongside the experimental samples. QC samples were inserted regularly and analyzed every 6–12 samples. Each experiment was repeated 6 times.
LC-MS/MS analyses were performed using an HPLC system (Shimadzu, LC-20A) coupled to a SCIEX Triple Quad™ 7500 mass spectrometer. The samples were separated on a Syncronis HILIC column (2.1 × 100 mm, 1.7 µm; Thermo Scientific). The mobile phases consisted of: Mobile phase A (0.1% formic acid and 2.5 mM ammonium acetate in water) and Mobile phase B (0.1% formic acid and 2.5 mM ammonium acetate in acetonitrile). Gradient elution was employed, with the flow rates and gradient conditions detailed in Table S4.
The mass spectrometry conditions were as follows: Ion source: electrospray ionization (ESI); Detection mode: positive ion mode; Scanning method: multiple reaction monitoring (MRM); Spray voltage (IS): 5500 V; Ion source temperature (TEM): 555 °C; Gas curtain pressure (CUR): 25 psi; Collision activation dissociation (CAD): MEDIUM; Nebulizer gas pressure (GS1): 55 psi; Auxiliary gas pressure (GS2): 55 psi.
All animal studies were approved and supervised by the Ethics Committee for Animal Use and Care at Peking University. Nude mice (BALB/c-nu) were purchased and maintained as previously described. For the establishment of xenograft tumor models, 1 × 10^6 U251-MG cells (either negative vector control or overexpressing GLUT3) were injected into the bilateral axillary fossae of 4-week-old nude mice. After 7 days, when palpable tumors had formed, the mice were randomly divided into six experimental groups (n = 7 per group), and treatment was initiated immediately.

The test system of data set [4] is U251-MG cells. Briefly: CCK-8 IC50 determination in U251-MG cells with or without GLUT3 OE. The conditions noted are these: GLUT3 OE vs control, CCK-8, 24 h drug treatment. The format is cell-based, human. On the procedure: as §1, §2
In data set [5] the target is T1, GLUT3 (Homo sapiens, UniProt P11169).
T1 construct: expressed in transfected cells
T1 sequence (P11169 1-496): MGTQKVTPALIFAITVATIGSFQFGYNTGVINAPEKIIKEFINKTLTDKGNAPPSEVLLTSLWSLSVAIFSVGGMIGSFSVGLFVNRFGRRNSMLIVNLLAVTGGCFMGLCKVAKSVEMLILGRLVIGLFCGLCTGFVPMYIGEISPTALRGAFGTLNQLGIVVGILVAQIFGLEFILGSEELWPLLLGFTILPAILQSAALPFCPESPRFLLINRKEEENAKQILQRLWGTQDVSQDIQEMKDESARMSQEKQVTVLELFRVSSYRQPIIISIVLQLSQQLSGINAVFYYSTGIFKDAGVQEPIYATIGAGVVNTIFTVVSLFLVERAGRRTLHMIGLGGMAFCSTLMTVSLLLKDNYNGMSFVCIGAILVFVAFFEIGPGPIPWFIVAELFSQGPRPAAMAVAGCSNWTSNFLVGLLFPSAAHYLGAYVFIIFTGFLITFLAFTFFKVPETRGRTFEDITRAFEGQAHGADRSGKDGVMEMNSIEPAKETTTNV
Briefly: 2-NBDG glucose uptake competition assay in GLUT3-OE vs vector control U251-MG cells. The conditions noted are these: for reduction in 2-NBDG uptake: GLUT3 OE U251-MG cells, 100 μM 2-NBDG. The format is cell-based. The protocol:
GBM cells were seeded into 96-well plates at a density of 4 × 10^4 cells per well and allowed to adhere for 24 h. After 6–12 h, the culture medium (containing 10% fetal bovine serum, FBS) was removed, and the cells were incubated in 100 µL of glucose-free DMEM medium for 1 h at 37 °C in a humidified atmosphere containing 5% CO2. The glucose-free medium was then replaced with 100 µL of DMEM containing 100 µM 2-NBDG, and the cells were incubated for an additional 30 min at 37 °C. Following incubation, the cells were washed three times with cold PBS to remove unincorporated 2-NBDG. The fluorescence intensity was immediately measured using a Synergy™ H1 automatic microplate reader with excitation and emission wavelengths set at 485 nm and 528 nm, respectively.
After 30 min of incubation at 37 °C, the cells were washed three times with cold PBS, and the fluorescence intensity was measured as described above.

Setting [6] is: GLUT3 Q159A vs GLUT3 WT overexpression.
[7] abbreviates: GLUT3 W386A vs GLUT3 WT overexpression.

The values below come from publication PMC12354831 (Cell Death Discovery, 2025).

As to `Cn1nnc2c(C(N)=O)ncn2c1=O` [TMZ], the “fold increase of IC50 on GLUT3 knockdown” value in data set [1] was 10.6 fold. The results for the “fold increase in colony numbers” value in data set [2] (setting [6]) and in data set [2] (setting [7]) were 0.97 fold and 7.3 fold, respectively. Also, the “drug level in GLUT3-overexpressing tumors relative to controls” value in data set [3] came out at 1.34 fold. For the same compound, the “drug concentration in GLUT3 overexpressing tumors relative to controls” value in data set [3] is given as ~ 1.95 fold. Also, the “reduction of IC50 in GLUT3 overexpressing cells compared to control cells” value in data set [4] is reported as 97.7%. In addition, the “reduction in 2-NBDG uptake” value in data set [5] (1 μM drug) stood at 36.8%; in data set [5] (10 μM drug), 47.2%; in data set [5] (100 μM drug) it was 70.1%. The “effect on glucose (2-NBDG) uptake in control cells” value in data set [5] (vector control U251-MG cells, until concentration reached 100 μM) is “minimally affected”.
On to `CCCCCOC(=O)Nc1nc(=O)n([C@@H]2O[C@H](C)[C@@H](O)[C@H]2O)cc1F` [CAPE, capecitabine], for which the “fold increase of IC50 on GLUT3 knockdown” value in data set [1] is recorded as 56.5 fold. Further, the “fold increase in colony numbers” value in data set [2] (setting [6]) turned out to be 1.7 fold; in data set [2] (setting [7]), 4.4 fold. Also, the “drug level in GLUT3-overexpressing tumors relative to controls” value in data set [3] is 3.54 fold. The “drug concentration in GLUT3 overexpressing tumors relative to controls” value in data set [3] amounted to 1.52 fold. Besides, in data set [4], the “reduction of IC50 in GLUT3 overexpressing cells compared to control cells” value is recorded as 94.4%. Moreover, the “reduction in 2-NBDG uptake” value worked out at 39.4% in data set [5] (1 μM drug), 51.5% in data set [5] (10 μM drug) and 69.3% in data set [5] (100 μM drug).
